Laboratory results published in patent US8394825B2, “Compound” (Sterix Limited, priority 2007, dated 2013).

Structure (SMILES) | melting point
COc1cc2c(cc1OCc1ccccc1)CCN(Cc1ccncc1)C2 [compound 13, 6-Benzyloxy-7-methoxy-2-(pyridin-4-ylmethyl)-1,2,3,4-tetrahydroisoquinoline] | 125 to 126 °C
COc1ccc(CCN2CCc3cc(OCc4ccccc4)c(OC)cc3C2)cc1 [compound 14, 6-Benzyloxy-7-methoxy-2-(4-methoxyphenethyl)-1,2,3,4-tetrahydroisoquinoline] | 88 to 89 °C
COc1ccc(C(=O)CN2CCc3cc(OCc4ccccc4)c(OC)cc3C2)cc1OC [compound 15, 6-Benzyloxy-2-(2-(3,4-dimethoxyphenyl)-2-oxoethyl)-7-methoxy-1,2,3,4-tetrahydroisoquinoline] | 126 to 127 °C
COc1ccc(CN2CCc3cc(OCc4ccccc4)c(OC)cc3C2)cc1OC [compound 18, 6-Benzyloxy-7-methoxy-2-(3,4-dimethoxybenzyl)-1,2,3,4-tetrahydroisoquinoline] | 98 to 99 °C
COc1cc2c(cc1OCc1ccccc1)CCN(Cc1cccc(O)c1)C2 [compound 30, 6-Benzyloxy-2-(3-hydroxybenzyl)-7-methoxy-1,2,3,4-tetrahydroisoquinoline] | 78 to 79 °C
COc1cc2c(cc1OCc1ccccc1)CCN(Cc1cccc(NC(C)=O)c1)C2 [compound 35, 2-(3-Acetamidobenzyl)-6-(benzyloxy)-7-methoxy-1,2,3,4-tetrahydroisoquinoline] | 63 to 66 °C
COc1cc2c(cc1OCc1ccccc1)CCN(Cc1cccc(NS(C)(=O)=O)c1)C2 [compound 36, 6-(Benzyloxy)-2-(3-methanesulfonylaminobenzyl)-7-methoxy-1,2,3,4-tetrahydroisoquinoline] | 132 to 133 °C
COc1cccc(CN2CCc3cc(O)ccc3C2)c1 [compound 37, 6-Hydroxy-2-(3-methoxybenzyl)-1,2,3,4-tetrahydroisoquinoline] | 223 to 224 °C
COc1ccc(CCN2CCc3cc(O)c(OC)cc3C2)cc1 [compound 46, 6-Hydroxy-7-methoxy-2-(4-methoxyphenethyl)-1,2,3,4-tetrahydroisoquinoline] | 170 to 171 °C
COc1cc2c(cc1O)CCN(Cc1cccnc1)C2 [compound 47, 6-Hydroxy-7-methoxy-2-(pyridin-3-ylmethyl)-1,2,3,4-tetrahydroisoquinoline] | 165 to 166 °C
COc1cc2c(cc1O)CCN(Cc1ccccn1)C2 [compound 48, 6-Hydroxy-7-methoxy-2-(pyridin-2-ylmethyl)-1,2,3,4-tetrahydroisoquinoline] | 137 to 138 °C
COc1cc2c(cc1O)CCN(Cc1cccc(OC(C)=O)c1)C2 [compound 51, 6-Hydroxy-7-methoxy-2-(3-acetoxybenzyl)-1,2,3,4-tetrahydroisoquinoline] | 120 to 122 °C
COc1cc2c(cc1O)CCN(Cc1cccc(NS(C)(=O)=O)c1)C2 [compound 52, 6-Hydroxy-7-methoxy-2-(3-methanesulfonylaminobenzyl)-1,2,3,4-tetrahydroisoquinoline] | 99 to 101 °C
COc1cc2c(cc1O)CCN(Cc1cccc(C(C)=O)c1)C2 [compound 62, 6-Hydroxy-7-methoxy-2-(3-acetylbenzyl)-1,2,3,4-tetrahydroisoquinoline] | 132 to 134 °C
COc1cc2c(cc1OS(N)(=O)=O)CCN(Cc1cccc(NS(C)(=O)=O)c1)C2 [compound 88, 7-Methoxy-2-(3-(methylsulfonamido)benzyl)-1,2,3,4-tetrahydroisoquinolin-6-yl sulfamate] | 151 to 152 °C
COc1cccc(C(=O)N2CCc3cc(OCc4ccccc4)c(OC)cc3C2=O)c1 [compound 131, 6-Benzyloxy-7-methoxy-2-(3-methoxybenzoyl)-3,4-dihydro-2H-isoquinoline-1-one] | 141 to 143 °C
COc1cc(OC)cc(C(=O)N2CCc3cc(OCc4ccccc4)ccc3C2=O)c1 [compound 132, 6-Benzyloxy-2-(3,5-dimethoxybenzoyl)-3,4-dihydro-2H-isoquinoline-1-one] | 158 to 159 °C
COc1cc(OC)cc(C(=O)N2CCc3cc(O)ccc3C2=O)c1 [compound 137, 2-(3,5-Dimethoxybenzoyl)-6-hydroxy-3,4-dihydro-2H-isoquinoline-1-one] | 178 to 179 °C
COc1cccc(CN2CCc3cc(O)c(OC)cc3C2C)c1 (centres unmarked) [compound 253, 2-(3-Methoxybenzyl)-1,2,3,4-tetrahydro-7-methoxy-1-methylisoquinolin-6-ol] | 97 to 99 °C
COc1ccc(CN2C(=O)CCc3cc(O)c(OC)cc32)cc1 [compound 292, 6-Hydroxy-7-methoxy-1-(4-methoxybenzyl)-3,4-dihydro-1H-quinolin-2-one] | 168 to 169 °C
COc1ccccc1CN1CCCc2cc(OCc3ccccc3)c(OC)cc2C1 [compound 302, 7-Benzyloxy-8-methoxy-2-(2-methoxybenzyl)-2,3,4,5-tetrahydro-1H-benzo[c]azepine] | 105 to 106 °C
COc1cccc(CC2CCCc3cc(OCc4ccccc4)c(OC)cc3N2)c1 (centres unmarked) [compound 303, 7-Benzyloxy-8-methoxy-2-(3-methoxybenzyl)-2,3,4,5-tetrahydro-1H-benzoazepine] | 92 to 93 °C
COc1ccc(CN2CCCc3cc(OCc4ccccc4)c(OC)cc3C2)cc1 [compound 304, 7-Benzyloxy-8-methoxy-2-(4-methoxybenzyl)-2,3,4,5-tetrahydro-1H-benzo[c]azepine] | 87 to 88 °C
COc1ccc(CN2CCCc3cc(O)c(OC)cc3C2)cc1 [compound 308, 7-Hydroxy-8-methoxy-2-(4-methoxybenzyl)-2,3,4,5-tetrahydro-1H-benzo[c]azepine] | 105 to 107 °C

Other lines, results leading:

melting point | Structure (SMILES)
149 to 150 °C | COc1cc2c(cc1O)CCN(CC(=O)c1ccc(OC)c(OC)c1)C2 [compound 53, 2-(2-(3,4-Dimethoxyphenyl)-2-oxoethyl)-6-hydroxy-7-methoxy-1,2,3,4-tetrahydroisoquinoline]
63 to 64 °C | COc1cc2c(cc1OCc1ccccc1)CCN(C(=O)c1cc(OC)c(OC)c(OC)c1)C2 [compound 111, 6-Benzyloxy-7-methoxy-2-(3,4,5-trimethoxybenzoyl)-1,2,3,4-tetrahydroisoquinoline]
127 to 132 °C | COc1cc2c(cc1O)CC(C)N(Cc1cc(OC)c(OC)c(OC)c1)C2 (centres unmarked) [compound 219, 2-(3,4,5-Trimethoxybenzyl)-1,2,3,4-tetrahydro-7-methoxy-3-methylisoquinolin-6-ol]
143 to 147 °C | COc1cc2c(cc1O)CC(C)(C)N(Cc1cc(OC)c(OC)c(OC)c1)C2 [compound 229, 7-Methoxy-3,3-dimethyl-2-(3,4,5-trimethoxy-benzyl)-1,2,3,4-tetrahydro-isoquinolin-6-ol]
163 to 166 °C | COc1cc(OC)cc(C(=O)N2Cc3cc(OC)c(O)cc3CC2(C)C)c1 [compound 235, (3,4-Dihydro-6-hydroxy-7-methoxy-3,3-dimethylisoquinolin-2(1H)-yl)(3,5-dimethoxyphenyl)methanone]
175 to 177 °C | COc1cc2c(cc1OCc1ccccc1)CC(C)(C)N(C(=O)c1cc(OC)c(OC)c(OC)c1)C2C (centres unmarked) [compound 245, (6-(Benzyloxy)-3,4-dihydro-7-methoxy-1,3,3-trimethylisoquinolin-2(1H)-yl)-(3,4,5-trimethoxyphenyl)methanone]
198 to 200 °C | COc1cc2c(cc1O)CC(C)(C)N(C(=O)c1cc(OC)c(OC)c(OC)c1)C2C (centres unmarked) [compound 246, (3,4-Dihydro-6-hydroxy-7-methoxy-1,3,3-trimethylisoquinolin-2(1H)-yl)(3,4,5-trimethoxyphenyl)methanone]
170 to 173 °C | COc1cc2c(cc1OS(N)(=O)=O)CC(C)(C)N(C(=O)c1cc(OC)c(OC)c(OC)c1)C2C (centres unmarked) [compound 247, Sulfamic acid 7-methoxy-1,3,3-trimethyl-2-(3,4,5-trimethoxy-benzoyl)-1,2,3,4-tetrahydro-isoquinolin-6-yl ester]
129 to 130 °C | COc1cc2c(cc1OCc1ccccc1)CCC(=O)N2Cc1cc(OC)c(OC)c(OC)c1 [compound 289, 6-(Benzyloxy)-7-methoxy-1-(3,4,5-trimethoxybenzyl)-3,4-dihydro-1H-quinolin-2-one]
157 to 158 °C | COc1cc2c(cc1O)CCC(=O)N2Cc1cc(OC)c(OC)c(OC)c1 [compound 293, 6-Hydroxy-7-methoxy-1-(3,4,5-trimethoxybenzyl)-3,4-dihydro-1H-quinolin-2-one]
44 to 46 °C | COc1cc2c(cc1OCc1ccccc1)CCCN(Cc1cc(OC)c(OC)c(OC)c1)C2 [compound 305, 7-Benzyloxy-8-methoxy-2-(3,4,5-trimethoxybenzyl)-2,3,4,5-tetrahydro-1H-benzo[c]azepine]
136 to 137 °C | COc1cc2c(cc1O)CCCN(Cc1ccccc1OC)C2 [compound 306, 7-Hydroxy-8-methoxy-2-(2-methoxybenzyl)-2,3,4,5-tetrahydro-1H-benzo[c]azepine]
114 to 115 °C | COc1cccc(CN2CCCc3cc(O)c(OC)cc3C2)c1 [compound 307, 7-Hydroxy-8-methoxy-2-(3-methoxybenzyl)-2,3,4,5-tetrahydro-1H-benzo[e]azepine]
46 to 48 °C | COc1cc2c(cc1O)CCCN(Cc1cc(OC)c(OC)c(OC)c1)C2 [compound 309, 7-Hydroxy-8-methoxy-2-(3,4,5-trimethoxybenzyl)-2,3,4,5-tetrahydro-1H-benzo[c]azepine]
134 to 135 °C | COc1cc2c(cc1OCc1ccccc1)CCCN(Cc1cc(OC)c(OC)c(OC)c1)C2=O [compound 314, 7-Benzyloxy-8-methoxy-2-(3,4,5-trimethoxybenzyl)-2,3,4,5-tetrahydro-1H-benzo[c]azepin-1-one]
129 to 130 °C | COc1cc2c(cc1OCc1ccccc1)CCCC(=O)N2Cc1cc(OC)c(OC)c(OC)c1 [compound 318, 7-benzyloxy-8-methoxy-1-(3,4,5-trimethoxybenzyl)-4,5-dihydro-1H-benzo[b]azepin-2(3H)-one]
170 to 171 °C | COc1cc2c(cc1O)CCCC(=O)N2Cc1cc(OC)c(OC)c(OC)c1 [compound 319, 7-Hydroxy-8-methoxy-1-(3,4,5-trimethoxybenzyl)-4,5-dihydro-1H-benzo[b]azepin-2(3H)-one]
